From PubChem BioAssay AID2060488 (Molecular Pharmacology Branch, DTP, NCI, 2025)

Test system: 966289-007-R4-J1-PDC complex spheroid viability
Assay: Anticancer human tumor 966289-007-R4-J1-PDC patient-derived pancreatic adenocarcinoma cell line growth inhibition [GQUAD]
Conditions: for IC50: curve of first compound; for viability, T/C: stronger effect = lower value
Procedure, shortened: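 Tumor cells were grown as complex spheroids with HUVEC endothelial cells and mesenchymal stem cells as stroma. G-quadruplex stabilizers were combined with targeted agents over half-log dilutions from near the clinical Cmax, or from 10 microM.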

[1] = second compound 0.0316 µM, first compound 0.0316 µM
[2] = second compound 0.0316 µM, first compound 0.1 µM
[3] = second compound 0.0316 µM, first compound 0.316 µM
[4] = second compound 0.0316 µM, first compound 1 µM
[5] = second compound 0.0316 µM, first compound 3.16 µM
[6] = second compound 0.0316 µM, first compound 10 µM
[7] = second compound 0.1 µM, first compound 0.0316 µM
[8] = second compound 0.1 µM, first compound 0.1 µM
[9] = second compound 0.1 µM, first compound 0.316 µM
[10] = second compound 0.1 µM, first compound 1 µM
[11] = second compound 0.1 µM, first compound 3.16 µM
[12] = second compound 0.1 µM, first compound 10 µM
[13] = second compound 0.316 µM, first compound 0.0316 µM
[14] = second compound 0.316 µM, first compound 0.1 µM
[15] = second compound 0.316 µM, first compound 0.316 µM
[16] = second compound 0.316 µM, first compound 1 µM
[17] = second compound 0.316 µM, first compound 3.16 µM
[18] = second compound 0.316 µM, first compound 10 µM
[19] = second compound 1 µM, first compound 0.0316 µM
[20] = second compound 1 µM, first compound 0.1 µM
[21] = second compound 1 µM, first compound 0.316 µM
[22] = second compound 1 µM, first compound 1 µM
[23] = second compound 1 µM, first compound 3.16 µM
[24] = second compound 1 µM, first compound 10 µM
[25] = second compound 3.16 µM, first compound 0.0316 µM
[26] = second compound 3.16 µM, first compound 0.1 µM
[27] = second compound 3.16 µM, first compound 0.316 µM
[28] = second compound 3.16 µM, first compound 1 µM
[29] = second compound 3.16 µM, first compound 3.16 µM
[30] = second compound 3.16 µM, first compound 10 µM
[31] = second compound 10 µM, first compound 0.0316 µM
[32] = second compound 10 µM, first compound 0.1 µM
[33] = second compound 10 µM, first compound 0.316 µM
[34] = second compound 10 µM, first compound 1 µM
[35] = second compound 10 µM, first compound 3.16 µM
[36] = second compound 10 µM, first compound 10 µM
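Also: spheroids exposed to the agents for seven days before readout.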
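For viability, T/C in this document: percent viability relative to DMSO vehicle control wells taken as 100%.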

## COc1cc(C2c3cc4c(cc3C(OC3OC5COC(C)OC5C(O)C3O)C3COC(=O)C23)OCO4)cc(OC)c1O (centres undefined) + CN(C)c1ccc(Nc2c3ccc(NC(=O)CCN4CCCC4)cc3nc3cc(NC(=O)CCN4CCCC4)ccc23)cc1
Second compound 0.0316 µM
  IC50: 300 nM
Second compound 0.1 µM
  IC50: 301 nM
Second compound 0.316 µM
  IC50: 271 nM
Second compound 1 µM
  IC50: 276 nM
Second compound 3.16 µM
  IC50: 270 nM
Second compound 10 µM
  IC50: 202 nM
[1]
  viability, T/C: 115%
[2]
  viability, T/C: 105%
[3]
  viability, T/C: 46.6%
[4]
  viability, T/C: 9.16%
[5]
  viability, T/C: 1.79%
[6]
  viability, T/C: 0.77%
[7]
  viability, T/C: 111%
[8]
  viability, T/C: 107%
[9]
  viability, T/C: 46.6%
[10]
  viability, T/C: 9.53%
[11]
  viability, T/C: 1.99%
[12]
  viability, T/C: 0.86%
[13]
  viability, T/C: 101%
[14]
  viability, T/C: 104%
[15]
  viability, T/C: 41.9%
[16]
  viability, T/C: 5.72%
[17]
  viability, T/C: 2.08%
[18]
  viability, T/C: 0.76%
[19]
  viability, T/C: 104%
[20]
  viability, T/C: 109%
[21]
  viability, T/C: 42.4%
[22]
  viability, T/C: 6.82%
[23]
  viability, T/C: 1.89%
[24]
  viability, T/C: 1.07%
[25]
  viability, T/C: 96.1%
[26]
  viability, T/C: 108%
[27]
  viability, T/C: 41.8%
[28]
  viability, T/C: 6.04%
[29]
  viability, T/C: 2.44%
[30]
  viability, T/C: 0.87%
[31]
  viability, T/C: 108%
[32]
  viability, T/C: 98.1%
[33]
  viability, T/C: 19.4%
[34]
  viability, T/C: 3.24%
[35]
  viability, T/C: 1.49%
[36]
  viability, T/C: 0.61%

## O=c1[nH]cc(F)c(=O)[nH]1 + CN(C)c1ccc(Nc2c3ccc(NC(=O)CCN4CCCC4)cc3nc3cc(NC(=O)CCN4CCCC4)ccc23)cc1
Second compound 0.0316 µM
  IC50: 205 nM
Second compound 0.1 µM
  IC50: 209 nM
Second compound 0.316 µM
  IC50: 208 nM
Second compound 1 µM
  IC50: 206 nM
Second compound 3.16 µM
  IC50: 213 nM
Second compound 10 µM
  IC50: 195 nM
[1]
  viability, T/C: 104%
[2]
  viability, T/C: 103%
[3]
  viability, T/C: 18.4%
[4]
  viability, T/C: 6.28%
[5]
  viability, T/C: 5.63%
[6]
  viability, T/C: 6.35%
[7]
  viability, T/C: 103%
[8]
  viability, T/C: 113%
[9]
  viability, T/C: 17.7%
[10]
  viability, T/C: 7.05%
[11]
  viability, T/C: 5.04%
[12]
  viability, T/C: 6.55%
[13]
  viability, T/C: 105%
[14]
  viability, T/C: 109%
[15]
  viability, T/C: 17.5%
[16]
  viability, T/C: 7.23%
[17]
  viability, T/C: 5.77%
[18]
  viability, T/C: 6.78%
[19]
  viability, T/C: 103%
[20]
  viability, T/C: 107%
[21]
  viability, T/C: 17.5%
[22]
  viability, T/C: 6.91%
[23]
  viability, T/C: 5.6%
[24]
  viability, T/C: 5.8%
[25]
  viability, T/C: 101%
[26]
  viability, T/C: 106%
[27]
  viability, T/C: 22.2%
[28]
  viability, T/C: 8.51%
[29]
  viability, T/C: 5.41%
[30]
  viability, T/C: 5.54%
[31]
  viability, T/C: 93.8%
[32]
  viability, T/C: 103%
[33]
  viability, T/C: 14.6%
[34]
  viability, T/C: 4.55%
[35]
  viability, T/C: 3.52%
[36]
  viability, T/C: 3.2%
